Reference: PubChem BioAssay (NCI)
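Method: 48-hour compound exposure of cells in 96-well plates, five concentrations, linear interpolation of endpoints. At the GI50, growth is halved. TGI denotes the concentration required for complete inhibition of growth.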

Key:
Assay in all cases: DTP human tumour cell line panel, 48 h
786-0 renal = tested on: 786-0 renal
A498 renal = tested on: A498 renal
A549 NSCLC = tested on: A549 NSCLC
ACHN renal = tested on: ACHN renal
BT-549 breast = tested on: BT-549 breast
CAKI-1 renal = tested on: CAKI-1 renal
CCRF-CEM leukemia = tested on: CCRF-CEM leukemia
COLO 205 colon = tested on: COLO 205 colon
DU-145 prostate = tested on: DU-145 prostate
HCC-2998 colon = tested on: HCC-2998 colon
HCT-116 colon = tested on: HCT-116 colon
HCT-15 colon = tested on: HCT-15 colon
HL-60(TB) leukemia = tested on: HL-60(TB) leukemia
HOP-62 NSCLC = tested on: HOP-62 NSCLC
HOP-92 NSCLC = tested on: HOP-92 NSCLC
HS 578T breast = tested on: HS 578T breast
HT29 colon = tested on: HT29 colon
IGROV1 ovarian = tested on: IGROV1 ovarian
K-562 leukemia = tested on: K-562 leukemia
KM12 colon = tested on: KM12 colon
LOX IMVI melanoma = tested on: LOX IMVI melanoma
M14 melanoma = tested on: M14 melanoma
MALME-3M melanoma = tested on: MALME-3M melanoma
MCF7 breast = tested on: MCF7 breast
MDA-MB-231 breast = tested on: MDA-MB-231 breast
MDA-MB-435 = tested on: MDA-MB-435
MOLT-4 leukemia = tested on: MOLT-4 leukemia
NCI-H226 lung = tested on: NCI-H226 lung
NCI-H23 lung = tested on: NCI-H23 lung
NCI-H460 lung = tested on: NCI-H460 lung
NCI-H522 lung = tested on: NCI-H522 lung
NCI/ADR-RES ovarian = tested on: NCI/ADR-RES ovarian
OVCAR-3 ovarian = tested on: OVCAR-3 ovarian
OVCAR-4 ovarian = tested on: OVCAR-4 ovarian
OVCAR-5 ovarian = tested on: OVCAR-5 ovarian
OVCAR-8 ovarian = tested on: OVCAR-8 ovarian
PC-3 prostate = tested on: PC-3 prostate
RPMI-8226 leukemia = tested on: RPMI-8226 leukemia
RXF 393 renal = tested on: RXF 393 renal
SF-268 CNS = tested on: SF-268 CNS
SF-295 CNS = tested on: SF-295 CNS
SF-539 CNS = tested on: SF-539 CNS
SK-MEL-2 melanoma = tested on: SK-MEL-2 melanoma
SK-MEL-28 melanoma = tested on: SK-MEL-28 melanoma
SK-MEL-5 melanoma = tested on: SK-MEL-5 melanoma
SK-OV-3 ovarian = tested on: SK-OV-3 ovarian
SN12C renal = tested on: SN12C renal
SNB-19 CNS = tested on: SNB-19 CNS
SNB-75 CNS = tested on: SNB-75 CNS
SR leukemia = tested on: SR leukemia
SW-620 colon = tested on: SW-620 colon
T-47D breast = tested on: T-47D breast
TK-10 renal = tested on: TK-10 renal
U251 CNS = tested on: U251 CNS
UACC-257 melanoma = tested on: UACC-257 melanoma
UACC-62 melanoma = tested on: UACC-62 melanoma
UO-31 renal = tested on: UO-31 renal

CCN(Cc1ccccc1OC)c1ccc(CO)c(Cl)c1
GI50 (786-0 renal): 13 µM
TGI (786-0 renal): 26.2 µM
GI50 (A498 renal): 0.0454 µM
TGI (A498 renal): 0.13 µM
GI50 (A549 NSCLC): 4.26 µM
TGI (A549 NSCLC): 19.8 µM
GI50 (ACHN renal): 14.1 µM
TGI (ACHN renal): 27.4 µM
GI50 (BT-549 breast): 12.8 µM
TGI (BT-549 breast): 26 µM
GI50 (CAKI-1 renal): 5.62 µM
TGI (CAKI-1 renal): 23.9 µM
GI50 (CCRF-CEM leukemia): 19 µM
TGI (CCRF-CEM leukemia): 60.3 µM
GI50 (COLO 205 colon): 4.81 µM
TGI (COLO 205 colon): 14.4 µM
GI50 (DU-145 prostate): 15.8 µM
TGI (DU-145 prostate): 33.4 µM
GI50 (HCC-2998 colon): 10.7 µM
TGI (HCC-2998 colon): 24.5 µM
GI50 (HCT-116 colon): 0.215 µM
TGI (HCT-116 colon): 8.77 µM
GI50 (HCT-15 colon): 7.11 µM
TGI (HCT-15 colon): 23.6 µM
GI50 (HL-60(TB) leukemia): 11.8 µM
TGI (HL-60(TB) leukemia): 34.9 µM
GI50 (HOP-62 NSCLC): 3.16 µM
TGI (HOP-62 NSCLC): 16.4 µM
GI50 (HOP-92 NSCLC): 1.66 µM
TGI (HOP-92 NSCLC): 8.51 µM
GI50 (HS 578T breast): 13.4 µM
TGI (HS 578T breast): 37.2 µM
GI50 (HT29 colon): 4.7 µM
TGI (HT29 colon): 18 µM
GI50 (IGROV1 ovarian): 0.0502 µM
TGI (IGROV1 ovarian): 0.337 µM
GI50 (K-562 leukemia): 2.16 µM
TGI (K-562 leukemia): 12.1 µM
GI50 (KM12 colon): 11 µM
TGI (KM12 colon): 25.8 µM
GI50 (LOX IMVI melanoma): 15.1 µM
TGI (LOX IMVI melanoma): 29.6 µM
GI50 (M14 melanoma): 12.4 µM
TGI (M14 melanoma): 25.5 µM
GI50 (MALME-3M melanoma): 12.9 µM
TGI (MALME-3M melanoma): 27.5 µM
GI50 (MCF7 breast): 0.566 µM
TGI (MCF7 breast): 12.3 µM
GI50 (MDA-MB-231 breast): 11.1 µM
TGI (MDA-MB-231 breast): 24.9 µM
GI50 (MDA-MB-435): 3.06 µM
TGI (MDA-MB-435): 12.4 µM
GI50 (MOLT-4 leukemia): 18.1 µM
TGI (MOLT-4 leukemia): 46.2 µM
GI50 (NCI-H226 lung): 0.0487 µM
TGI (NCI-H226 lung): 0.179 µM
GI50 (NCI-H23 lung): 8.96 µM
TGI (NCI-H23 lung): 29.9 µM
GI50 (NCI-H460 lung): 0.511 µM
TGI (NCI-H460 lung): 11.6 µM
GI50 (NCI-H522 lung): 12 µM
TGI (NCI-H522 lung): 26.1 µM
GI50 (NCI/ADR-RES ovarian): 9.22 µM
TGI (NCI/ADR-RES ovarian): 26.9 µM
GI50 (OVCAR-3 ovarian): 0.767 µM
TGI (OVCAR-3 ovarian): 4.48 µM
GI50 (OVCAR-4 ovarian): 0.518 µM
TGI (OVCAR-4 ovarian): 10.3 µM
GI50 (OVCAR-5 ovarian): 0.123 µM
TGI (OVCAR-5 ovarian): 0.416 µM
GI50 (OVCAR-8 ovarian): 12.4 µM
TGI (OVCAR-8 ovarian): 31.8 µM
GI50 (PC-3 prostate): 12.3 µM
TGI (PC-3 prostate): 27.9 µM
GI50 (RPMI-8226 leukemia): 2.67 µM
TGI (RPMI-8226 leukemia): 21.5 µM
GI50 (RXF 393 renal): 7.61 µM
TGI (RXF 393 renal): 24.7 µM
GI50 (SF-268 CNS): 15.1 µM
TGI (SF-268 CNS): 30.7 µM
GI50 (SF-295 CNS): 2.71 µM
TGI (SF-295 CNS): 15.3 µM
GI50 (SF-539 CNS): 14.4 µM
TGI (SF-539 CNS): 27.8 µM
GI50 (SK-MEL-2 melanoma): 2.11 µM
TGI (SK-MEL-2 melanoma): 10.9 µM
GI50 (SK-MEL-28 melanoma): 10.3 µM
TGI (SK-MEL-28 melanoma): 24.8 µM
GI50 (SK-MEL-5 melanoma): 6.61 µM
TGI (SK-MEL-5 melanoma): 19.9 µM
GI50 (SK-OV-3 ovarian): 7.15 µM
TGI (SK-OV-3 ovarian): 20.9 µM
GI50 (SN12C renal): 11.1 µM
TGI (SN12C renal): 23.5 µM
GI50 (SNB-19 CNS): 13.7 µM
TGI (SNB-19 CNS): 31.8 µM
GI50 (SNB-75 CNS): 9.47 µM
TGI (SNB-75 CNS): 26.5 µM
GI50 (SR leukemia): 8.53 µM
TGI (SR leukemia): 40.9 µM
GI50 (SW-620 colon): 2.33 µM
TGI (SW-620 colon): 17.5 µM
GI50 (T-47D breast): 0.091 µM
TGI (T-47D breast): 0.685 µM
GI50 (TK-10 renal): 0.0512 µM
TGI (TK-10 renal): 0.372 µM
GI50 (U251 CNS): 1.38 µM
TGI (U251 CNS): 14.8 µM
GI50 (UACC-257 melanoma): 0.162 µM
TGI (UACC-257 melanoma): 0.498 µM
GI50 (UACC-62 melanoma): 0.223 µM
TGI (UACC-62 melanoma): 1.79 µM
GI50 (UO-31 renal): 11.5 µM
TGI (UO-31 renal): 24.7 µM
